Reference: ChEMBL document CHEMBL2331486, “Identification of diaryl 5-amino-1,2,4-oxadiazoles as tubulin inhibitors: the special case of 3-(2-fluorophenyl)-5-(4-methoxyphenyl)amino-1,2,4-oxadiazole” (Bioorg Med Chem Lett, 2013)
The source made the active and inactive calls. The calls are words filed in the database; no cut-off is given here.

Assays:
Tubulin = test: Inhibition of tubulin (unknown origin) assembly after 20 mins by turbidimetric analysis; type: protein-complex assay, Homo sapiens
Tubulin (Homo sapiens) [1] = biological target: T1, Tubulin (Homo sapiens) (UniProt P68371+Q9H4B7+P0DPH7+P68366+Q13509+Q71U36+P04350+Q3ZCM7+P07437+P68363+Q9BQE3+Q6PEY2+Q13885+Q9BVA1+Q9BUF5); conditions: at 5 µM
Description: Displacement of [3H]colchicine from tubulin (unknown origin) at 5 uM after 10 mins

Tubulin (Homo sapiens) [2] = biological target: T1, Tubulin (Homo sapiens); conditions: at 1 µM
Description: Displacement of [3H]colchicine from tubulin (unknown origin) at 1 uM after 10 mins

[3] = Growth inhibition of human NCI60 cells; type: functional
[4] = Growth inhibition of human KBV1a cells; type: functional; conditions: pooled result: one value given for 5 cell lines, strains, targets or settings
DU-145 [5] = test: Growth inhibition of human DU145 cells; type: functional
PC-3 [6] = test: Growth inhibition of human PC3 cells; type: functional
HCT-116 = test: Growth inhibition of human HCT116 cells; type: functional
PANC-1 = test: Growth inhibition of human PANC1 cells; type: functional
MDA-MB-231 [7] = test: Growth inhibition of human MDA-MB-231 cells; type: functional
CAKI-1 = test: Cytotoxicity against human Caki1 cells; type: functional
HCT-15 = test: Cytotoxicity against human HCT15 cells; type: functional
UO-31 = test: Cytotoxicity against human UO31 cells; type: functional
T47D = test: Cytotoxicity against human T47D cells; type: functional
CCRF-CEM = test: Cytotoxicity against human CCRF-CEM cells; type: functional
SK-MEL-28 = test: Cytotoxicity against human SK-MEL-28 cells; type: functional
[8] = Cytotoxicity against human Hs 578T cells; type: functional
SK-OV-3 = test: Cytotoxicity against human SKOV3 cells; type: functional
MDA-MB-435 = test: Cytotoxicity against human MDA-MB-435 cells; type: functional
ACHN = test: Cytotoxicity against human ACHN cells; type: functional
OVCAR-5 = test: Cytotoxicity against human OVCAR5 cells; type: functional
MCF7 = test: Cytotoxicity against human MCF7 cells; type: functional
SN12C = test: Cytotoxicity against human SN12C cells; type: functional
UACC-62 = test: Cytotoxicity against human UACC62 cells; type: functional
SNB-19 = test: Cytotoxicity against human SNB19 cells; type: functional
NCI-H460 = test: Cytotoxicity against human NCI-H460 cells; type: functional
A498 = test: Cytotoxicity against human A498 cells; type: functional
Malme-3M = test: Cytotoxicity against human MALME-3M cells; type: functional
COLO 205 = test: Cytotoxicity against human COLO205 cells; type: functional
HOP-62 = test: Cytotoxicity against human HOP62 cells; type: functional
RPMI-8226 = test: Cytotoxicity against human RPMI8226 cells; type: functional
HOP-92 = test: Cytotoxicity against human HOP92 cells; type: functional
MDA-MB-468 = test: Cytotoxicity against human MDA-MB-468 cells; type: functional
A549 = test: Cytotoxicity against human A549 cells; type: functional
KM12 = test: Cytotoxicity against human KM12 cells; type: functional
MDA-MB-231 [9] = test: Cytotoxicity against human MDA-MB-231 cells; type: functional
SNB-75 = test: Cytotoxicity against human SNB75 cells; type: functional
OVCAR-8 = test: Cytotoxicity against human OVCAR8 cells; type: functional
NCI-H522 = test: Cytotoxicity against human NCI-H522 cells; type: functional
MOLT-4 = test: Cytotoxicity against human MOLT4 cells; type: functional
HT-29 = test: Cytotoxicity against human HT-29 cells; type: functional
K562 = test: Cytotoxicity against human K562 cells; type: functional
TK-10 = test: Cytotoxicity against human TK10 cells; type: functional
SW-620 = test: Cytotoxicity against human SW620 cells; type: functional
OVCAR-3 = test: Cytotoxicity against human OVCAR3 cells; type: functional
SK-MEL-5 = test: Cytotoxicity against human SK-MEL-5 cells; type: functional
[10] = Cytotoxicity against human EKVX cells; type: functional
OVCAR-4 = test: Cytotoxicity against human OVCAR4 cells; type: functional
NCI-H226 = test: Cytotoxicity against human NCI-H226 cells; type: functional
SK-MEL-2 = test: Cytotoxicity against human SK-MEL-2 cells; type: functional
SF-268 = test: Cytotoxicity against human SF268 cells; type: functional
RXF 393 = test: Cytotoxicity against human RXF393 cells; type: functional
IGROV-1 = test: Cytotoxicity against human IGROV1 cells; type: functional
NCI-H322M = test: Cytotoxicity against human NCI-H322M cells; type: functional
SF-295 = test: Cytotoxicity against human SF295 cells; type: functional
PC-3 [11] = test: Cytotoxicity against human PC3 cells; type: functional
UACC-257 = test: Cytotoxicity against human UACC257 cells; type: functional
DU-145 [12] = test: Cytotoxicity against human DU145 cells; type: functional
U-251 = test: Cytotoxicity against human U251 cells; type: functional
HL-60(TB) = test: Cytotoxicity against human HL-60(TB) cells; type: functional
SF-539 = test: Cytotoxicity against human SF539 cells; type: functional

Cc1ccc(Nc2nc(-c3ccccc3)no2)cc1
IC50 (Tubulin): 1400 nM | inhibition (Tubulin (Homo sapiens) [1]): 88% | inhibition (Tubulin (Homo sapiens) [2]): 61%

Cc1ccc(Nc2nc(-c3ccccc3F)no2)cc1
GI50 [3]: 603 nM | IC50 (Tubulin): 1600 nM | inhibition (Tubulin (Homo sapiens) [1]): 85% | inhibition (Tubulin (Homo sapiens) [2]): 57%

COc1ccc(OC)c(-c2noc(Nc3ccc(C)c(F)c3)n2)c1
IC50 (Tubulin): 3500 nM | inhibition (Tubulin (Homo sapiens) [1]): 53% | inhibition (Tubulin (Homo sapiens) [2]): inactive

COc1ccc(OC)c(-c2noc(Nc3ccc4c(c3)OCCO4)n2)c1
IC50 (Tubulin): 3500 nM | inhibition (Tubulin (Homo sapiens) [1]): 50% | inhibition (Tubulin (Homo sapiens) [2]): 23%

COc1ccc(Nc2nc(-c3cccc(OC)c3OC)no2)cc1
GI50 [3]: 245 nM | IC50 (Tubulin): 2600 nM | inhibition (Tubulin (Homo sapiens) [1]): 68% | inhibition (Tubulin (Homo sapiens) [2]): 31%

COc1ccc(OC)c(-c2noc(Nc3ccc4c(c3)OCO4)n2)c1
GI50 [3]: 6460 nM | IC50 (Tubulin): 2500 nM | inhibition (Tubulin (Homo sapiens) [1]): 52% | inhibition (Tubulin (Homo sapiens) [2]): 21%

COc1ccc(Nc2nc(-c3ccccc3)no2)cc1Cl
IC50 (Tubulin): 1700 nM | inhibition (Tubulin (Homo sapiens) [1]): 80% | inhibition (Tubulin (Homo sapiens) [2]): 52%

COc1ccc(-n2cnnc2-c2cc(OC)c(OC)c(OC)c2)cc1F
GI50 [4]: 556 nM

COc1cccc(-c2noc(Nc3ccc(C)cc3)n2)c1OC
GI50 [3]: 2630 nM | IC50 (Tubulin): 3600 nM | inhibition (Tubulin (Homo sapiens) [1]): 52% | inhibition (Tubulin (Homo sapiens) [2]): 24%

COc1ccc(-n2cnnc2-c2cc(OC)c(OC)c(OC)c2)cc1
GI50 [4]: 464 nM

COc1cccc(-c2noc(Nc3ccc4c(c3)OCCO4)n2)c1
IC50 (Tubulin): 1900 nM | inhibition (Tubulin (Homo sapiens) [1]): 76% | inhibition (Tubulin (Homo sapiens) [2]): 38%

COc1cccc(-c2noc(Nc3ccc(C)cc3)n2)c1
IC50 (Tubulin): 1500 nM | inhibition (Tubulin (Homo sapiens) [1]): 85% | inhibition (Tubulin (Homo sapiens) [2]): 56%

COc1ccc(Nc2nc(-c3cccc(OC)c3)no2)cc1
GI50 (DU-145 [5]): 9.77 nM | GI50 (PC-3 [6]): 9.77 nM | IC50 (Tubulin): 1900 nM | GI50 (HCT-116): 9.77 nM | inhibition (Tubulin (Homo sapiens) [1]): 90% | GI50 (PANC-1): 9.77 nM | inhibition (Tubulin (Homo sapiens) [2]): 58% | GI50 (MDA-MB-231 [7]): 9.77 nM

CCc1ccc(Nc2nc(-c3cccc(OC)c3)no2)cc1
IC50 (Tubulin): 1600 nM | inhibition (Tubulin (Homo sapiens) [1]): 81% | inhibition (Tubulin (Homo sapiens) [2]): 40%

COc1ccc(OC)c(Nc2nc(-c3cccc(OC)c3OC)no2)c1
inhibition (Tubulin (Homo sapiens) [1]): inactive | inhibition (Tubulin (Homo sapiens) [2]): inactive

COc1cccc(-c2noc(Nc3ccc4c(c3)OCO4)n2)c1
GI50 [3]: 1230 nM | IC50 (Tubulin): 2200 nM | inhibition (Tubulin (Homo sapiens) [1]): 76% | inhibition (Tubulin (Homo sapiens) [2]): 40%

CCOc1ccc(Nc2nc(-c3ccccc3F)no2)cc1
IC50 (Tubulin): 1700 nM | inhibition (Tubulin (Homo sapiens) [1]): 76% | inhibition (Tubulin (Homo sapiens) [2]): 42%

CCc1ccc(Nc2nc(-c3ccccc3F)no2)cc1
IC50 (Tubulin): 2700 nM | inhibition (Tubulin (Homo sapiens) [1]): 73% | inhibition (Tubulin (Homo sapiens) [2]): 41%

CCc1ccc(Nc2nc(-c3cc(OC)ccc3OC)no2)cc1
GI50 [3]: 575 nM | IC50 (Tubulin): 1800 nM | inhibition (Tubulin (Homo sapiens) [1]): 65% | inhibition (Tubulin (Homo sapiens) [2]): 36%

COc1cccc(-c2noc(Nc3ccc(OC)c(Cl)c3)n2)c1
GI50 [3]: 562 nM | IC50 (Tubulin): 2300 nM | inhibition (Tubulin (Homo sapiens) [1]): 73% | inhibition (Tubulin (Homo sapiens) [2]): 36%

Cc1ccc(Nc2nc(-c3ccccc3F)no2)cc1F
GI50 [3]: 851 nM | IC50 (Tubulin): 1600 nM | inhibition (Tubulin (Homo sapiens) [1]): 81% | inhibition (Tubulin (Homo sapiens) [2]): 52%

Fc1ccccc1Nc1nc(-c2ccccc2)no1
inhibition (Tubulin (Homo sapiens) [1]): inactive | inhibition (Tubulin (Homo sapiens) [2]): inactive

CCOc1ccc(Nc2nc(-c3ccccc3)no2)cc1
IC50 (Tubulin): 1200 nM | inhibition (Tubulin (Homo sapiens) [1]): 82% | inhibition (Tubulin (Homo sapiens) [2]): 49%

CCOC(=O)c1cccc(Nc2nc(-c3ccc(OC)cc3)no2)c1
inhibition (Tubulin (Homo sapiens) [1]): inactive | inhibition (Tubulin (Homo sapiens) [2]): inactive

COc1ccc(Nc2nc(-c3ccccc3F)no2)cc1
GI50 [3]: 204 nM | GI50 (CAKI-1): 64.6 nM | GI50 (HCT-15): 85.1 nM | GI50 (UO-31): 339 nM | GI50 (T47D): 15100 nM | GI50 (CCRF-CEM): 138 nM | GI50 (SK-MEL-28): 339 nM | GI50 [8]: 389 nM | GI50 (SK-OV-3): 204 nM | GI50 (MDA-MB-435): 19.9 nM | GI50 (ACHN): 490 nM | GI50 (OVCAR-5): 724 nM | GI50 (MCF7): 263 nM | GI50 (SN12C): 240 nM | GI50 (UACC-62): 53.7 nM | GI50 (SNB-19): 87.1 nM | GI50 (NCI-H460): 61.7 nM | GI50 (A498): 229 nM | GI50 (Malme-3M): 58.9 nM | GI50 (COLO 205): 126 nM | GI50 (HOP-62): 135 nM | GI50 (RPMI-8226): 372 nM | GI50 (HOP-92): 3800 nM | GI50 (MDA-MB-468): 1070 nM | IC50 (Tubulin): 1100 nM | GI50 (A549): 91.2 nM | GI50 (KM12): 112 nM | GI50 (MDA-MB-231 [9]): 676 nM | GI50 (SNB-75): 141 nM | GI50 (OVCAR-8): 209 nM | GI50 (NCI-H522): 19.9 nM | GI50 (MOLT-4): 91.2 nM | GI50 (HT-29): 34.7 nM | GI50 (K562): 30.9 nM | GI50 (TK-10): 832 nM | GI50 (SW-620): 47.9 nM | GI50 (OVCAR-3): 38 nM | GI50 (SK-MEL-5): 151 nM | GI50 [10]: 1510 nM | GI50 (OVCAR-4): 776 nM | GI50 (NCI-H226): 2190 nM | GI50 (SK-MEL-2): 39.8 nM | GI50 (SF-268): 501 nM | inhibition (Tubulin (Homo sapiens) [1]): 91% | GI50 (RXF 393): 155 nM | GI50 (IGROV-1): 389 nM | GI50 (NCI-H322M): 501 nM | GI50 (SF-295): 61.7 nM | GI50 (PC-3 [11]): 447 nM | GI50 (UACC-257): 14100 nM | GI50 (DU-145 [12]): 141 nM | inhibition (Tubulin (Homo sapiens) [2]): 68% | GI50 (U-251): 60.3 nM | GI50 (HL-60(TB)): 25.7 nM | GI50 (SF-539): 107 nM

CCOc1ccc(Nc2nc(-c3cccc(OC)c3OC)no2)cc1
IC50 (Tubulin): 1800 nM | inhibition (Tubulin (Homo sapiens) [1]): 56% | inhibition (Tubulin (Homo sapiens) [2]): 20%

CCOc1ccc(Nc2nc(-c3cccc(OC)c3)no2)cc1
GI50 [3]: 851 nM | IC50 (Tubulin): 1600 nM | inhibition (Tubulin (Homo sapiens) [1]): 78% | inhibition (Tubulin (Homo sapiens) [2]): 37%

COc1ccc(/C=C\c2cc(OC)c(OC)c(OC)c2)cc1O [COMBRETASTATIN A4]
GI50 [3]: 14.8 nM
